Test results reported in ChEMBL document CHEMBL5365531, “Structure-Activity Relationship Studies of SARS-CoV-2 Main Protease Inhibitors Containing 4-Fluorobenzothiazole-2-carbonyl Moieties” (J Med Chem, 2023).

Key:
[1] = Mutagenicity in Salmonella typhimurium TA98 assessed as inhibition of bacterial growth at 0.152 to 333 ug incubated in absence of S9 fraction by micro-Ames test; format: toxicity, Salmonella enterica subsp. enterica serovar Typhimurium; details: in vivo; dose 0.152-333 µg
[2] = Mutagenicity in Escherichia coli WP2uvrA assessed as inhibition of bacterial growth at 0.152 to 333 ug incubated in absence of S9 fraction by micro-Ames test; format: toxicity; details: in vivo; dose 0.152-333 µg
SARS-CoV-2 [3] = experiment: Antiviral activity against SARS-CoV-2 hCoV-19/Japan/TKYS02037/2022 (omicron BA.2) infected in Vero E6 cells preincubated with cells for 1 day followed by viral infection and measured after 3 days by qRT-PCR analysis; format: functional, organism-based; details: Severe acute respiratory syndrome coronavirus 2, hCoV-19/Japan/TKYS02037/2022 (omicron BA.2), Vero C1008
[4] = Mutagenicity in Salmonella typhimurium TA1535 assessed as inhibition of bacterial growth at 0.152 to 333 ug incubated in absence of S9 fraction by micro-Ames test; format: toxicity, Salmonella enterica subsp. enterica serovar Typhimurium; details: in vivo; dose 0.152-333 µg
[5] = Mutagenicity in Escherichia coli WP2uvrA assessed as inhibition of bacterial growth at 0.152 to 333 ug incubated in presence of S9 fraction by micro-Ames test; format: toxicity, subcellular; details: dose 0.152-333 µg
[6] = Mutagenicity in Salmonella typhimurium TA100 assessed as inhibition of bacterial growth at 0.152 to 333 ug incubated in absence of S9 fraction by micro-Ames test; format: toxicity, Salmonella enterica subsp. enterica serovar Typhimurium; details: in vivo; dose 0.152-333 µg
SARS-CoV-2 [7] = experiment: Antiviral activity against SARS-CoV-2 infected in Vero E6 cells preincubated with cells for 1 day in presence of HCl treated compound followed by viral infection and measured after 3 days by qRT-PCR analysis; format: functional, organism-based; details: Severe acute respiratory syndrome coronavirus 2, Vero C1008
[8] = Mutagenicity in Salmonella typhimurium TA98 assessed as inhibition of bacterial growth at 0.152 to 333 ug incubated in presence of S9 fraction by micro-Ames test; format: toxicity, subcellular, Salmonella enterica subsp. enterica serovar Typhimurium; details: dose 0.152-333 µg
Vero C1008 = experiment: Cytotoxicity against African green monkey Vero E6 cells infected with SARS-CoV-2 WK-521 upto 100 uM incubated for 3 days by immunostaining analysis; format: toxicity, cell-based; details: chlorocebus sabaeus, vero c1008, 72 h, time 3 day
[9] = Mutagenicity in Salmonella typhimurium TA100 assessed as inhibition of bacterial growth at 0.152 to 333 ug incubated in presence of S9 fraction by micro-Ames test; format: toxicity, subcellular, Salmonella enterica subsp. enterica serovar Typhimurium; details: dose 0.152-333 µg
MT2 = experiment: Cytotoxicity against human MT2 cells assessed as reduction in cell viability at 10 uM incubated for 12 days by CCK-8 assay; format: toxicity, cell-based; details: mt2, 288 h, time 12 day
SARS-CoV-2 [10] = experiment: Antiviral activity against SARS-CoV-2 infected in Vero E6 cells preincubated with cells for 1 day in absence of HCl followed by viral infection and measured after 3 days by qRT-PCR analysis; format: functional, organism-based; details: Severe acute respiratory syndrome coronavirus 2, Vero C1008
[11] = Mutagenicity in Salmonella typhimurium TA1537 assessed as inhibition of bacterial growth at 0.152 to 333 ug incubated in presence of S9 fraction by micro-Ames test; format: toxicity, subcellular, Salmonella enterica subsp. enterica serovar Typhimurium; details: dose 0.152-333 µg
PBMC = experiment: Cytotoxicity against human PBMC cells assessed as reduction in cell viability at 10 uM incubated for 12 days by CCK-8 assay; format: toxicity, cell-based; details: 288 h, time 12 day
[12] = Mutagenicity in Salmonella typhimurium TA1535 assessed as inhibition of bacterial growth at 0.152 to 333 ug incubated in presence of S9 fraction by micro-Ames test; format: toxicity, subcellular, Salmonella enterica subsp. enterica serovar Typhimurium; details: dose 0.152-333 µg
SARS-CoV-2 [13] = experiment: Antiviral activity against SARS-CoV-2 infected in Vero E6 cells preincubated with cells for 1 day followed by viral infection and measured after 3 days by qRT-PCR analysis; format: functional, organism-based; details: Severe acute respiratory syndrome coronavirus 2, Vero C1008
[14] = Mutagenicity in Salmonella typhimurium TA1537 assessed as inhibition of bacterial growth at 0.152 to 333 ug incubated in absence of S9 fraction by micro-Ames test; format: toxicity, Salmonella enterica subsp. enterica serovar Typhimurium; details: in vivo; dose 0.152-333 µg
[15] = Cytotoxicity against African green monkey Vero E6 cells incubated for 3 days by WST-8 assay; format: toxicity, cell-based, Vero C1008; details: chlorocebus sabaeus, time 3 day
MOLT-4 = experiment: Cytotoxicity against human MOLT-4 cells assessed as reduction in cell viability at 10 uM incubated for 12 days by CCK-8 assay; format: toxicity, cell-based; details: molt-4, 288 h, time 12 day

CC(C)(C)[C@H](NC(=O)C(F)(F)F)C(=O)N1C[C@H]2[C@@H]([C@H]1C(=O)N[C@H](C#N)C[C@@H]1CCNC1=O)C2(C)C
> 100 µM: CC50 at 72 h [15]
1.6 µM: EC50 (SARS-CoV-2 [13])
1.4 µM: EC50 (SARS-CoV-2 [3]) | EC50 (SARS-CoV-2 [10])
Non-Toxic: Activity [1] | Activity [2] | Activity [4] | Activity [5] | Activity [6] | Activity [8] | Activity (Vero C1008) | Activity [9] | Activity (MT2) | Activity [11] | Activity (PBMC) | Activity [12] | Activity [14] | Activity (MOLT-4)
2.5 µM: EC50 (SARS-CoV-2 [7])
